Experiments:
basophils [1] = assay: Basophil Activation Test (BAT), CD63, whole blood; format: cell-based, human; conditions: 24 hours versus 2 hours drug exposure
Method: (§1) The BAT was conducted as set forth in Santos (2021) Allergy, 76:2420-2432. Blood from six healthy donors was drawn and Compound 128 was added at various concentrations (10 μM, 3.16 μM, 1 μM, 0.3 μM, 0.1 μM, 0.03 μM, or 0 μM). Blood samples were gently rocked at room temperature for 2 hours, 24 hours, or 48 hours. The BAT assay using the Flow Cast Basophil Activation Kit (Buhlmann Diagnostics; Catalog #B-CCR-STCON) was then conducted following manufacturer instructions by (1) stimulating the blood with anti-FcεR stimulation control in stimulation buffer with IL-3 and staining cells for CCR3 and CD63 for 15 minutes at 37° C., (2) lysing red blood cells and fixing cells with Lysing Reagent at room temperature for 10 minutes, (3) washing cells with Wash Buffer, and (4) acquiring data on a flow cytometer. Activated basophils were defined as CCR3+, low side scatter and CD63+. Percent of activated basophils was calculated as number of activated basophils over the total number of basophils. A four-parameter logistic regression was applied to determine the EC50 and EC90.

basophils [2] = assay: Comparison of BTK inhibitors by BAT (CD63, CD203c); format: cell-based, human; conditions: concentration of 1 μM, 2 hours, blood from a healthy donor
Method: as §1, with “The” for “The BAT was conducted as set forth in Santos (2021) Allergy, 76:2420-2432. Blood from six healthy donors was drawn and Compound 128 was added at various concentrations (10 μM, 3.16 μM, 1 μM, 0.3 μM, 0.1 μM, 0.03 μM, or 0 μM). Blood samples were gently rocked at room temperature for 2 hours, 24 hours, or 48 hours. The”
Blood samples were gently rocked at room temperature for 2 hours. […] Activated basophils were also defined as CCR3+, low side scatter and CD203c+.

serum tryptase = assay: Serum tryptase in ISM patients; format: in vivo, human; conditions: 100 mg or 150 mg BID
Method: Also, blood samples were collected at the following timepoints: Cycle 1, Day 1: pre-dose (within 30 minutes prior to the morning dose), 0.5, 1.0, 2.0, 3.0, 4.0, and 6.0 hours (+15 minutes) post-morning dose. Cycle 1, Day 8: pre-dose (within 30 minutes prior to the morning dose) and 2 hours (+15 minutes) post-morning dose. Serum tryptase tests were conducted according to Example 14.
The measurement of serum tryptase can be followed to the procedure described in the literature (McMurray et al., Standardized indolent systemic mastocytosis evaluations across a health care system: implications for screening accuracy, Blood (2024) 144 (4): 408-419). Briefly, the procedure begins with proper patient preparation, avoiding recent physical activity or triggers that could cause mast cell activation. Venous blood samples, preferably drawn when the patient is not experiencing acute symptoms, are collected in serum separator tubes (SSTs) or plain red-top tubes, with approximately 5 mL of blood needed for analysis. After collection, the blood is allowed to clot at room temperature for 30-60 minutes before centrifugation for 10-15 minutes. The serum is then carefully separated from the cells and stored at 2-8° C. for short-term analysis or frozen at −20° C. or lower for long-term storage. […]

basophils [3] = assay: Inhibition of basophil activation (BAT, CD63) in ISM patients; format: in vivo, human
Method: as §1, with “EC90. […]” for “EC90.”
The BAT assay measuring CD63 used the Flow Cast Basophil Activation Kit method and percent activated basophils were calculated as described in Example 1. Percent inhibition of CD63 activation was calculated as (100−(Sample condition−Unstimulated DMSO control)/(Stimulated DMSO control−Unstimulated DMSO control)×100).

[4] = test system: healthy mast cells and ISM mast cells; assay: Potency across healthy mast cells and ISM mast cells (FIG. 16); format: cell-based, human; conditions: presence of SCF, NP-IgE sensitization, NP-BSA stimulation
Method: Healthy BM-MC donor 0166 and ISM WB-MC 1061-004 17 Jan. 2024 and 17 Oct. 2024. Experiments performed in the presence of SCF. Sensitization and Stimulation: NP-IgE (100 ng/ml) 18 hrs, NP-BSA (0.5 ng/ml) for 15 min at 37° C. (CD63, CD203, pBTK and histamine) or 4 min at RT (Calcium Flux).

## C=CC(=O)N1CCC(F)(CNc2ncnc(N)c2-c2ccc(Oc3ccccc3)cc2)CC1 [Compound 128, 1-(4-(((6-amino-5-(4-phenoxyphenyl)pyrimidin-4-yl)amino)methyl)-4-fluoropiperidin-1-yl)prop-2-en-1-one]
Basophils [1]
  potency increase after 24 hours drug exposure: approximately 4 fold
Basophils [2]
  basophil activation (CD63+, CD203c+): fully inhibits basophil activation
Serum tryptase
  reduction in serum tryptase levels: effective in reducing serum tryptase levels
Basophils [3]; 100 mg or 150 mg BID
  inhibition of basophil activation: effective in inhibiting basophil activation
Basophils [3]; 50, 75, 100 or 150 mg BID versus placebo
  percent inhibition of CD63 activation of basophils, dose dependence: greater inhibition of basophil activation is achieved in ISM patients with greater dosing
[4]
  potency in healthy versus ISM mast cells (CD63, CD203, pBTK, histamine, calcium flux): equipotent
